The values that follow come from paper PMC8881077 (Journal of Enzyme Inhibition and Medicinal Chemistry, 2022).

Where two headings read alike, the source gives them in different places.

One data set addresses huAChE (Homo sapiens, UniProt P22303). As to the kind of experiment: biochemical. The class given is biochemical. Set-up: AChE from 5% rat cortex homogenate or human erythrocytes (Sigma Co.); purchased Sigma Co; host or cells: human erythrocytes. The note with it: for SI: Selectivity Index = IC50 (BuChE)/IC50 (AChE), human enzymes; for IC50: from human erythrocytes, read-out: IC50 ± SD huAChE.

The target in a further data set is T1, ratBuChE (Rattus norvegicus, UniProt Q9JKC1).
T1 construct: BuChE from rat serum or human serum (Sigma Co.); from tissue; host or cells: rat serum
T1 sequence (Q9JKC1 24-597): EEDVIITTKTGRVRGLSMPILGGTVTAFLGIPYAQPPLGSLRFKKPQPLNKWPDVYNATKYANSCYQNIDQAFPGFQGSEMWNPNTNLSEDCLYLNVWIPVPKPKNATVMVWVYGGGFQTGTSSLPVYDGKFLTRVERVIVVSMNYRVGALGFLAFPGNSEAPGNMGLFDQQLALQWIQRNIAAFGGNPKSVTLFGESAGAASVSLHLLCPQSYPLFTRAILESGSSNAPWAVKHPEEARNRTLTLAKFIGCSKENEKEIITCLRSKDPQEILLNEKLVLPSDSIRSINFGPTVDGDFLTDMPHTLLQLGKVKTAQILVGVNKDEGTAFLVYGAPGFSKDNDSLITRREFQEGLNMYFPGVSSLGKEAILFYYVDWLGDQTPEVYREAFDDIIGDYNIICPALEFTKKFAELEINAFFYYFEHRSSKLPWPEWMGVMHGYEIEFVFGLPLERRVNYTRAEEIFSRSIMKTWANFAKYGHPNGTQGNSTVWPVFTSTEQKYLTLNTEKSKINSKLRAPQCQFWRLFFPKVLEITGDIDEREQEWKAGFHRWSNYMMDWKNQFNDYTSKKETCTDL
The data set can be described thus: ratBuChE inhibition, modified Ellman's method. Format: biochemical. A general note: In Ellman's method for cholinesterases, released thiocholine reacts with DTNB.

For data set [1] the following is noted: for ORAC: Trolox as standard.
Method: The skeleton compounds naringenin and apigenin were also evaluated for comparison purposes, and vitamin E analogue Trolox was used as a standard.
The antioxidant potency of target compounds was tested using an oxygen radical absorbance capacity fluorescein (ORAC-FL) assay.
The next data set addresses T2, ratAChE (Rattus norvegicus, UniProt P37136).
T2 construct: AChE from 5% rat cortex homogenate or human erythrocytes (Sigma Co.); from tissue; host or cells: 5% rat cortex homogenate
T2 sequence (P37136 32-614): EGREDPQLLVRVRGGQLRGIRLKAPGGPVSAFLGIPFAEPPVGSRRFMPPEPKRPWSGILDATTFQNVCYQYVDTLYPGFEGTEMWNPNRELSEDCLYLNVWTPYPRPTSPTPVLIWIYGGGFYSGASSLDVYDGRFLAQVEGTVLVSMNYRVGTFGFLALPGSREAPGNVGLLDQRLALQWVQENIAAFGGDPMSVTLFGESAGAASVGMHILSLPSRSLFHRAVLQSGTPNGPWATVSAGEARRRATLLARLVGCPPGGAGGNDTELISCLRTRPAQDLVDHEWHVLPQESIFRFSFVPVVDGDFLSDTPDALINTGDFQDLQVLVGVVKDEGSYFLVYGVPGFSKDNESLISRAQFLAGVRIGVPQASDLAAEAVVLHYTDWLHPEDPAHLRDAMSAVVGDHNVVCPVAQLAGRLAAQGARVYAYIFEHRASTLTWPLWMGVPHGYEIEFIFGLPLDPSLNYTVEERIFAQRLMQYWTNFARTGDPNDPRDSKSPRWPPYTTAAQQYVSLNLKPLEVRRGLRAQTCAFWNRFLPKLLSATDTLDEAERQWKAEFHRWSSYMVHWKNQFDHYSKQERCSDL
The data set can be described thus: biochemical. The note with it: for SI: Selectivity Index = IC50 (BuChE)/IC50 (AChE), rat enzymes; for IC50: from 5% rat cortex homogenate.

A further data set addresses T3, huBuChE (Homo sapiens, UniProt P06276).
T3 construct: BuChE from rat serum or human serum (Sigma Co.); purchased Sigma Co; host or cells: human serum
The data set can be described thus: biochemical. The class given is biochemical. Particulars: from human serum; read-out: IC50 ± SD huBuChE.

A short description of the next data set: in vitro. Particulars: PAMPA. (The PAMPA barrier holds no transporters, so it reflects passive diffusion.)
Data set [2] concerns the target T4, Aβ1–42 (Homo sapiens, UniProt P05067). The data set can be described thus: Self-induced Aβ1–42 aggregation, Thioflavin T fluorescence. Format: biochemical. Particulars: tested compounds and Aβ1–42 25 μM.
From the text: (§1) The Thioflavin T-based flurometric assay was employed to test the inhibition potency on self-induced/Cu^2+-induced Aβ1-42 aggregation.
The target in data set [3] is T4, Aβ1–42. The data set can be described thus: Cu^2+-induced Aβ1–42 aggregation, ThT fluorescence. Format: biochemical. The note with it: tested compounds and Aβ1–42 25 μM.
Method: Curcumin was also tested as a referenced compound.
as §1
In data set [4] the test system is scopolamine-induced mice memory impairment. The data set can be described thus: Step-down passive avoidance task. The note with it: 5 mg/kg, scopolamine 3 mg/kg.
Method: Sixty mice were randomly divided into six groups. […] After 30 min, memory impairment was induced by administering scopolamine (3 mg/kg).
The conditions of data set [5]: cited from earlier work.
The subject of a further data set is PC12 cells. The data set can be described thus: Neuroprotective effect on H2O2-induced PC12 cells injury, MTT assay. The class given is cell-based. Particulars: compound 100 μM, 100 μM H2O2, PC12 cells. (Tetrazolium assays rely on reduction of a dye to a coloured formazan, in cell work by metabolically active cells.)

Chain of huAChE (P22303 32-617 isoform P22303-2 limits assumed): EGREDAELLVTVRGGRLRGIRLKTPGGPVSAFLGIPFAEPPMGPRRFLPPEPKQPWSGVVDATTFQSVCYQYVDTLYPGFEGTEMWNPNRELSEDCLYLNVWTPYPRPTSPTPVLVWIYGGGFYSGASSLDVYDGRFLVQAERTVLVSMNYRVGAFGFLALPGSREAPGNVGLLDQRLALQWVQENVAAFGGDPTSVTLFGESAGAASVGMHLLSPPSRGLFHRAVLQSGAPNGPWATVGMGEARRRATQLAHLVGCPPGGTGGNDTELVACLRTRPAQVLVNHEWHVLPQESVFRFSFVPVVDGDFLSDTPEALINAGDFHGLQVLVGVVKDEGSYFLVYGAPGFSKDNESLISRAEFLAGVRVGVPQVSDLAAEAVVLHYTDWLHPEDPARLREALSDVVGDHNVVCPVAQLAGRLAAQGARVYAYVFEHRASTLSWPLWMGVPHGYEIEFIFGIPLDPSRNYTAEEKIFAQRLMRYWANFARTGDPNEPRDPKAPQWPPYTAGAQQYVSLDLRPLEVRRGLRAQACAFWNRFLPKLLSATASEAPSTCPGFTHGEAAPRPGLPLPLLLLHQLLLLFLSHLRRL
T3 sequence (P06276 29-602): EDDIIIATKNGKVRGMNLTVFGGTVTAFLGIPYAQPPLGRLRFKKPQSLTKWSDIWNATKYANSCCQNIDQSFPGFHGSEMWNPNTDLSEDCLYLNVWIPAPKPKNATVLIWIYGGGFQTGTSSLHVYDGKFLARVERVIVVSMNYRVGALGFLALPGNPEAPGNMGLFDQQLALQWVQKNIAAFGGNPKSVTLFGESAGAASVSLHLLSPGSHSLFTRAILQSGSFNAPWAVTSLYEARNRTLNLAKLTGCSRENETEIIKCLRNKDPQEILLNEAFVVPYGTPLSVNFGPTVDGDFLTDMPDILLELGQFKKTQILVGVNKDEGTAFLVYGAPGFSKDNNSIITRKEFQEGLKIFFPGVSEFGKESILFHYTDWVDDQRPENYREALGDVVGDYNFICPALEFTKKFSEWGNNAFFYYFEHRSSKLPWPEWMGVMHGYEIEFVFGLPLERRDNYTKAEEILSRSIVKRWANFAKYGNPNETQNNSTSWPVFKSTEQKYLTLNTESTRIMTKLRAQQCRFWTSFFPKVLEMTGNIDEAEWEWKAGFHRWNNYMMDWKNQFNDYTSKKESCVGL
T4 sequence (P05067 672-713): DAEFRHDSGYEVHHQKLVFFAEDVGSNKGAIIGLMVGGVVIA
Method for huAChE: (§2) The AChE and BuChE inhibitory activities of the synthesised compounds were evaluated using the Ellman assay with slight modification. AChE from 5% rat cortex homogenate or human erythrocytes (Sigma Co.). BuChE from rat serum or human serum (Sigma Co.).
Method for huBuChE: as §2
Method for ratAChE: as §2
Method for ratBuChE: as §2

As usually defined, the IC50 is the concentration at which inhibition is half-maximal. Regarding `CCN(CCCCOc1ccc(-c2cc(=O)c3c(O)cc(OCCCCN(CC)Cc4ccccc4)cc3o2)cc1)Cc1ccccc1` [Compound 10h, 7–(4-(benzyl(ethyl)amino)butoxy)-2–(4-(4-(benzyl(ethyl)amino)butoxy)phenyl)-5-hydroxy-4H-chromen-4-one], the SI stood at 23.1 at huAChE and 14.0 at ratAChE. Further, the IC50 on huAChE was found to be 0.16 ± 0.01 µM; on ratBuChE it was 12.9 ± 0.51 µM; at ratAChE (read-out: IC50 ± SD ratAChE) it was 0.92 ± 0.06 µM; at huBuChE it was 3.7 ± 0.06 µM. In addition, the ORAC in data set [1] is 1.1 ± 0.03 μM of Trolox equivalent/μM of tested compound.
Turning to `CCN(CCCCCOc1ccc(-c2cc(=O)c3c(O)cc(OCCCCCN(CC)Cc4ccccc4)cc3o2)cc1)Cc1ccccc1` [Compound 10k, 7-((5-(benzyl(ethyl)amino)pentyl)oxy)-2–(4-((5-(benzyl(ethyl)amino)pentyl)oxy)phenyl)-5-hydroxy-4H-chromen-4-one], the SI at huAChE is listed as 34.6; on ratAChE it was 16.4. For the same compound, the IC50 on huAChE was 0.13 ± 0.01 µM; against ratBuChE, 13.3 ± 0.27 µM; on ratAChE (read-out: IC50 ± SD ratAChE), 0.81 ± 0.05 µM; on huBuChE, 4.5 ± 0.12 µM. Moreover, in data set [1], the ORAC was 1.1 ± 0.02 μM of Trolox equivalent/μM of tested compound.
Regarding `CCN(CCCCCOc1ccc(-c2cc(=O)c3c(O)cc(OCCCCCN(CC)Cc4ccccc4OC)cc3o2)cc1)Cc1ccccc1OC` [Compound 10l, 7-((5-(ethyl(2-methoxybenzyl)amino)pentyl)oxy)-2–(4-((5-(ethyl(2-methoxybenzyl)amino)pentyl)oxy)phenyl)-5-hydroxy-4H-chromen-4-one], the SI came out at 24.4 on huAChE and 23.2 at ratAChE. Also, the half-maximal inhibitory concentration (IC50) on huAChE was 0.09 ± 0.002 µM; on ratBuChE, 14.4 ± 0.32 µM; on ratAChE (read-out: IC50 ± SD ratAChE) it was 0.62 ± 0.05 µM; at huBuChE, 2.2 ± 0.18 µM. Also, the ORAC in [1] is reported as 1.3 ± 0.03 μM of Trolox equivalent/μM of tested compound.
Regarding `CCN(CCCCCCOc1ccc(-c2cc(=O)c3c(O)cc(OCCCCCCN(CC)Cc4ccccc4)cc3o2)cc1)Cc1ccccc1` [Compound 10r, 7-((6-(benzyl(ethyl)amino)hexyl)oxy)-2–(4-((6-(benzyl(ethyl)amino)hexyl)oxy)phenyl)-5-hydroxy-4H-chromen-4-one], the results for the IC50 against ratBuChE and on ratAChE (read-out: IC50 ± SD ratAChE) were 14.1 ± 0.22 µM and 1.7 ± 0.21 µM, respectively. Further, the ORAC in data set [1] is on record as 1.2 ± 0.04 μM of Trolox equivalent/μM of tested compound. The compound also had an SI at ratAChE of 8.3.
For `O=c1cc(-c2ccc(OCCCCCCN3CCC(Cc4ccccc4)CC3)cc2)oc2cc(OCCCCCCN3CCC(Cc4ccccc4)CC3)cc(O)c12` [Compound 10s, 7-((6–(4-benzylpiperidin-1-yl)hexyl)oxy)-2–(4-((6–(4-benzylpiperidin-1-yl)hexyl)oxy)phenyl)-5-hydroxy-4H-chromen-4-one], the figures for the IC50 at ratBuChE and on ratAChE (read-out: IC50 ± SD ratAChE) were 16.9 ± 0.54 µM and 2.6 ± 0.33 µM, respectively. For the same compound, the ORAC in data set [1] was 1.1 ± 0.03 μM of Trolox equivalent/μM of tested compound. In addition, the SI at ratAChE worked out at 6.5.
`O=c1cc(-c2ccc(OCCCCCCN3CCC(c4ccccc4)CC3)cc2)oc2cc(OCCCCCCN3CCC(c4ccccc4)CC3)cc(O)c12` [Compound 10t, 5-hydroxy-7-((6–(4-phenylpiperidin-1-yl)hexyl)oxy)-2–(4-((6–(4-phenylpiperidin-1-yl)hexyl)oxy)phenyl)-4H-chromen-4-one]: the results for the IC50 against ratBuChE and at ratAChE (read-out: IC50 ± SD ratAChE) were 19.3 ± 0.67 µM and 5.9 ± 0.37 µM, respectively. Also, the ORAC in [1] was 1.0 ± 0.02 μM of Trolox equivalent/μM of tested compound. Besides, the SI on ratAChE is given as 3.3.
With `O=c1cc(-c2ccc(OCCCCCCN3CCC(CCCc4ccccc4)CC3)cc2)oc2cc(OCCCCCCN3CCC(CCCc4ccccc4)CC3)cc(O)c12` [Compound 10u, 5-hydroxy-7-((6–(4-(3-phenylpropyl)piperidin-1-yl)hexyl)oxy)-2–(4-((6–(4–(3-phenylpropyl)piperidin-1-yl)hexyl)oxy)phenyl)-4H-chromen-4-one], the values for the half-maximal inhibitory concentration (IC50) at ratBuChE and on ratAChE (read-out: IC50 ± SD ratAChE) were 17.2 ± 0.45 µM and 6.3 ± 0.21 µM, respectively. Further, in data set [1], the ORAC is listed as 1.2 ± 0.03 μM of Trolox equivalent/μM of tested compound. This compound also came in with an SI on ratAChE of 2.7.
The corresponding values for `CC1CC(C)CN(CCCCCCOc2ccc(-c3cc(=O)c4c(O)cc(OCCCCCCN5CC(C)CC(C)C5)cc4o3)cc2)C1` (stereo not drawn) [Compound 10v, 7-((6–(3,5-dimethylpiperidin-1-yl)hexyl)oxy)-2–(4-((6–(3,5-dimethylpiperidin-1-yl)hexyl)oxy)phenyl)-5-hydroxy-4H-chromen-4-one] are 14.8 ± 0.29 µM, 8.1 ± 0.49 µM, 1.3 ± 0.03 μM of Trolox equivalent/μM of tested compound and 1.8.
Usually Papp stands for the rate of passage across a membrane or cell layer, normalised by area and donor concentration. Regarding `CCn1cc(C(=O)O)c(=O)c2cc(F)c(N3CCNCC3)cc21` [Norfloxacin, reference compound], the Papp at 100 μg/mL in the data set “in vitro” was determined as 0.13 ± 0.01 ×10⁻⁶ cm/s.
`O=c1cc(-c2ccc(O)cc2)oc2cc(O)cc(O)c12` [apigenin, reference compound]: the 50% inhibitory concentration (IC50) on ratBuChE and on ratAChE (IC50 ± SD ratAChE) was more than 50 µM in each case. Also, the ORAC in data set [1] is listed as 5.6 ± 0.52 μM of Trolox equivalent/μM of tested compound.
By inhibition is commonly meant the share of the control response that was lost under treatment. Low readings indicate a response near the control, high ones a response far below the control. Take `COc1cc(/C=C/C(=O)CC(=O)/C=C/c2ccc(O)c(OC)c2)ccc1O` [curcumin, reference compound]: the inhibition at 25 µM on Aβ1–42 [2] was 45.9 ± 0.67%; against Aβ1–42 [3] it was 50.6 ± 0.33%.
Turning to `COc1cc2c(cc1OC)C(=O)C(CC1CCN(Cc3ccccc3)CC1)C2` (stereo not drawn) [donepezil, reference compound], the step-down latency in [4] was found to be 219.4 s.
As to `O=C1CC(c2ccc(O)cc2)Oc2cc(O)cc(O)c21` (stereo not drawn) [naringenin, 5,7-dihydroxy-2–(4-hydroxyphenyl)-2,3-dihydrochromen-4-one, reference compound], the IC50 against ratBuChE and against ratAChE (IC50 ± SD ratAChE) was more than 50 µM each time. Further, the ORAC values in [1] worked out at 5.2 eq. For the same compound, the ORAC in [1] was 5.2 ± 0.29 μM of Trolox equivalent/μM of tested compound. For the same compound, the oral bioavailability in [5] is recorded as 15%.
For orientation: cell viability means the share of living cells, or the viability signal relative to a control. Turning to Vitamine E [reference compound], the cell viability in the data set with PC12 cells is given as 67.6%.
